Entries after “also recorded” stand apart in the source; their conditions may differ. Read-outs that look alike come from different tables or passages of the source.
Legend:
H9 human ESC line = conditions: cited from earlier work
[1] = test system: o/c ratio in H9 embryonic stem cells; conditions: Teratogen Index, cited from earlier work; for quickPredict TI: o/c ratio
[2] = test system: SOX2 (ectoderm and pluripotency marker) in RUES2-GLR cells; assay: DevTox GLR-Endo assay: increase in percent SOX2-positive cells (AEID 3095, Sox2_up); conditions: for MAX_MEAN: tcpl plot AEID3095, maximum mean response; for MAX_MED: tcpl plot AEID3095, maximum median response; for AC50 / Emax: Homo sapiens; for AC50: read-out: ga (winning model); for Emax: read-out: tp (winning model);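 on all read-outs here: cells exposed to test chemicals for 48 h in total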
RUES2-GLR cells [3] = assay: DevTox GLR-Endo assay: decrease in total cell count, cytotoxicity (AEID 3098, CellCount_dn); conditions: for Emax: Homo sapiens, read-out: Cell Count % Max Inhibition; for Cell Count % Max Inhibition: Table S2, cell count relative to DMSO
in vitro = conditions: human
[4] = test system: SOX17 in H9 human ESC line; conditions: SOX17 half-maximal inhibition concentration; read-out: hPST IC50; cited from earlier work
[5] = test system: SOX17 (endoderm marker) in RUES2-GLR cells; assay: DevTox GLR-Endo assay: increase in percent SOX17-positive cells (AEID 3093, Sox17_up); format: cell-based, human; conditions: for Emax: Homo sapiens; for HIT−CALL: tcpl plot AEID3093, COFF 20.3
Method: (§1) The total test chemical incubation period was 48 h.
(§2) (Supplementary Materials).

[6] = test system: BRA (mesoderm marker) in RUES2-GLR cells; assay: DevTox GLR-Endo assay: increase in percent BRA-positive cells (AEID 3096, Bra_up); format: cell-based, human; conditions: for HIT−CALL: tcpl plot AEID3096, COFF 0.774; for MAX_MEAN: tcpl plot AEID3096, maximum mean response; for MAX_MED: tcpl plot AEID3096, maximum median response
Method: as §1, §2

[7] = cited from earlier work; for Development Toxicant Classification: Table S2; for Classification: developmental toxicant classification (Teratogen / Non-Teratogen) of reference and training chemicals, ref DOI per chemical: 10.1093/toxsci/kft239, 10.1093/toxsci/kfaa014, 10.1177/026119290203000204, 10.1038/s41598-020-59542-x; for DT Class.: developmental toxicant classification
[8] = test system: SOX17 (endoderm marker) in RUES2-GLR cells; assay: DevTox GLR-Endo assay: decrease in percent SOX17-positive cells (AEID 3094, Sox17_dn); conditions: for AC50 / Emax: Homo sapiens; for Hit Call: Table S2, SOX17-positive cells, cutoff 3*bmad; for DevTox ACC: Table S2, percent SOX17-positive cells; for DevTox ACC / DevTox-GLR Endo ACC: 48 h exposure; for DevTox-GLR Endo ACC: activity concentration at cutoff, SOX17-positive cells; for HIT−CALL: tcpl plot AEID3094, COFF 20.3; for DevTox % Max Inhibition: Table S2, percent SOX17-positive cells relative to DMSO; for MAX_MEAN: tcpl plot AEID3094, maximum mean response; for MAX_MED: tcpl plot AEID3094, maximum median response
Outline: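 Readouts are loss of SOX17-positive fraction and reduced cell number in endoderm-differentiating RUES2-GLR cells after 48 h of chemical exposure. Controls: undifferentiated and differentiated cells, 0.2% DMSO, and 1 µM SB431542; at least four biological replicates.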

H9 embryonic stem cells = conditions: cited from earlier work
RUES2-GLR cells [9] = assay: DMSO tolerance test under directed endoderm differentiation (SOX17-positive cells, cell count); format: cell-based, human; conditions: DMSO 0.2%
Method: To identify biomarker-positive populations during directed endoderm differentiation, RUES2-GLR cells were evaluated by high-content confocal imaging. […] A qualitative loss of SOX2 expression and increased SOX17 expression were evident, indicating loss in pluripotency and commitment to definitive endoderm, respectively (Figure 2A).

[10] = cytotoxicity half-maximal concentration
[11] = tcpl plot AEID3093, maximum mean response, read-out: MAX_MEAN
[12] = tcpl plot AEID3093, maximum median response, read-out: MAX_MED
[13] = chemicals common with quickPredict
[14] = 48 h, read-out: DevTox-GLR Endo AC50 (µM), SOX17 half-maximal activity concentration, 48 h exposure
[15] = read-out: DevTox % Max Inhibition
[16] = read-out: ga (winning model), tcpl plot AEID3094, gain parameter of winning curve fit (log concentration, µM axis), hit calls only (converted)
[17] = concentration at cell viability cutoff
[18] = tcpl plot AEID3093, maximum mean response
[19] = tcpl plot AEID3093, maximum median response

| SMILES | quickPredict TI [1] [µM] | MAX_MEAN [2] [Percent Activity] | MAX_MED [2] [Percent Activity] | Emax (RUES2-GLR cells [3]) [%] | Cell Count ACC (RUES2-GLR cells [3]; human, 48 h) [µM] | Emax [5, 11] [%] | Emax [5, 12] [%] | HIT−CALL [5] | HIT−CALL [6] | MAX_MEAN [6] [Percent Activity] | MAX_MED [6] [Percent Activity] | Development Toxicant Classification [7] | Classification [7] | DT Class. [7, 13] | Emax [8, 15] [%] | Emax ([8]; read-out: MAX_MEAN) [%] | Hit Call [8] | DevTox ACC [8] [µM] | HIT−CALL [8] | quickPredict CV (H9 embryonic stem cells; [17]) [µM] | other results |
| --- | --- | --- | --- | --- | --- | --- | --- | --- | --- | --- | --- | --- | --- | --- | --- | --- | --- | --- | --- | --- | --- |
| CCCC(CCC)C(=O)O [Valproic Acid] | 155 | 1.25 | 0.475 | 18.1 | >200 | 7.73 | 5.59 | 0 | 0 | 0.771 | 0.815 | Positive | Teratogen | Pos | 22.3 | 22 | Positive | 177.332 | 1 | 271 | hPST TC50 (H9 human ESC line; [10]): 3.3 µM; hPST TC50 (H9 human ESC line; hPST cytotoxicity): 3.3 µM; CC50 at 48 h (in vitro): > 200 µM; IC50 [4]: 2.6 µM; DT Class. ([7]; chemicals common with hPST): Pos; SOX17 ACC relative to cytotoxic concentration (in words) [8]: below cytotoxic concentrations; AC50 [8, 14]: 124 µM; Emax ([8]; read-out: MAX_MED): 22.3%; AC50 [8, 16]: 123 µM; Emax ([8]; read-out: tp (winning model)): 29.3%; DevTox-GLR Endo ACC [8]: 177.33 µM |
| C[S+](C)[O-] [DMSO, dimethyl sulfoxide] | – | – | – | – | – | – | – | – | – | – | – | – | – | – | – | – | – | – | – | – | effect on cell counts (in words) (RUES2-GLR cells [9]): without affecting cell counts; reduction of the SOX17 population (RUES2-GLR cells [9]): 19.5% |
| CC(O)CO (centres unmarked) [1,2-Propylene glycol] | 327552 | 0.616 | 0.577 | – | – | – | – | 0 | 0 | 0.919 | 0.955 | Negative | Non-Teratogen | Neg | – | – | Negative | >200 | 0 | – | quickPredict TI (µM) [1]: 327,552 µM; Cell Count ACC (RUES2-GLR cells [3]; Table S2, 48 h exposure): >200 µM; Cell Count % Max Inhibition (RUES2-GLR cells [3]): 12.9966%; MAX_MEAN [5, 18]: 8.27 Percent Activity; MAX_MED [5, 19]: 7.58 Percent Activity; DevTox % Max Inhibition [8]: 5.484%; MAX_MEAN [8]: 3.45 Percent Activity; MAX_MED [8]: 5.48 Percent Activity; quickPredict CV (H9 embryonic stem cells; cell viability): 246664 µM; quickPredict CV (µM) (H9 embryonic stem cells; [17]): 246,664 µM |
| O=c1[nH]cc(F)c(=O)[nH]1 [5-Fluorouracil] | 2.02 | 6.64 | 5.57 | 91 | 4.179 | 3.38 | 4.48 | 0 | – | – | – | Positive | Teratogen | Pos | 102 | 102 | Positive | 7.071 | 1 | 1.45 | hPST TC50 (H9 human ESC line; [10]): 0.7 µM; hPST TC50 (H9 human ESC line; hPST cytotoxicity): 0.7 µM; AC50 [2]: 18.6 µM; Emax [2]: 5.33%; effect on cell count (in words) (RUES2-GLR cells [3]): significant decreases in cell count; DevTox-GLR Endo CC (RUES2-GLR cells [3]; human, 48 h): 20.34 µM; CC50 at 48 h (in vitro): 5.72 µM; IC50 [4]: 0.6 µM; DT Class. ([7]; chemicals common with hPST): Pos; AC50 [8, 14]: 8.48 µM; Emax ([8]; read-out: MAX_MED): 102%; AC50 [8, 16]: 8.49 µM; Emax ([8]; read-out: tp (winning model)): 102%; DevTox-GLR Endo ACC [8]: 7.07 µM |
| NC(=O)NO [Hydroxyurea] | 74.9 | 1.5 | 0.557 | – | – | – | – | 0 | 0 | 0.733 | 0.69 | Positive | Teratogen | Pos | – | – | Negative | >200 | 0 | 237 | Cell Count ACC (RUES2-GLR cells [3]; Table S2, 48 h exposure): 64.5432 µM; Cell Count % Max Inhibition (RUES2-GLR cells [3]): 34.555%; DevTox-GLR Endo CC (RUES2-GLR cells [3]; concentration at cell count cutoff, 48 h exposure): 64.54 µM; effect on cell count (in words) (RUES2-GLR cells [3]; training set, 48 h exposure): significant cell loss that did not impact SOX17-positive populations; also recorded: significant decreases in cell count; MAX_MEAN [5, 18]: 13.7 Percent Activity; MAX_MED [5, 19]: 16 Percent Activity; hit call designation (in words) ([8]; DevTox GLR-Endo prediction against developmental toxicant classification): false negative; DevTox % Max Inhibition [8]: 15.8672%; maximum observed effect level class (% max inhibition) ([8]; stratification of training set chemicals): weak (weak (0–20% max inhibition)); MAX_MEAN [8]: 17.2 Percent Activity; MAX_MED [8]: 15.9 Percent Activity |
| CS(=O)(=O)OCCCCOS(C)(=O)=O [Busulfan] | 2.31 | 2.43 | 2.59 | 82.3 | 5.795 | 7.27 | 12.6 | 0 | 0 | 2.12 | 2.19 | Positive | Teratogen | Pos | 100 | 100 | Positive | 25.262 | 1 | 4.91 | AC50 [2]: 145 µM; Emax [2]: 4.09%; effect on cell count (in words) (RUES2-GLR cells [3]): significant decreases in cell count; DevTox-GLR Endo CC (RUES2-GLR cells [3]; human, 48 h): 5.79 µM; Emax ([8]; read-out: MAX_MED): 100%; AC50 [8, 16]: 38.9 µM; Emax ([8]; read-out: tp (winning model)): 101%; DevTox-GLR Endo ACC [8]: 25.26 µM |

— paper PMC9321663, “The DevTox Germ Layer Reporter Platform: An Assay Adaptation of the Human Pluripotent Stem Cell Test” (Toxics, 2022)
